From patent publication US20030104507A1, “Method for detection of ATP” (priority 2001, published 2003)

Tested on: Jurkat cells
Test: Effect of NaF on Jurkat cell luminescence
Assay type: cell-based
Excerpt: In some cells, such as lymphoid cells (e.g., Jurkat), an increase in luminescence over time in the presence of the reagent composition solution is observed. While the underlying mechanism of this increase in luminescence is not known, it is postulated that it results from the functioning of ATP-generating enzymes in this cell. The activity of such enzymes, if left unchecked, will result in an over-estimation of ATP in a sample at the time of the assay. This experiment was designed to test the effects of sodium fluoride on luminescence when using lymphoid cells.
Jurkat cells (ATCC, CRL-1990) were grown in 5% CO2/95% air, 100% humidity at 37° C. and maintained in RPMI media (Sigma, R-8005) containing 10% FBS (Hyclone #SH30070), 1X non-essential amino acids (Hyclone SH30238) and 1 mM sodium pyruvate (Hyclone #SH30239). Cells were plated at 0, 12500, 25000, and 50000 cells/well in 100 μl of media in a 96-well microtiter luminometer plate. Quadruplicate replicates were prepared. To each of these wells was added reagent composition (reagent composition=40 mM Citrate buffer (pH 6.0), 110 mM MES buffer (pH 6.0), 0.2 mM EDTA, 0.2% Gelatin, 100 μg/ml Luciferase (LucPpe2m146, diluted from 37.8 mg/ml stock solution), 100 μM luciferin, 300 mM NaCl, 20 mM MgSO4, 0.05% Mazu DF-204, 0.6% DTAB). In addition, all but the “no KPO4” control sample contained 60 mM KPO4 buffer (pH 6.0). Various concentrations of NaF were then added to the above solution to final concentrations of 0, 1.0, 2.0, 4.0, 10.0 mM; one condition had 10.0 mM NaF but without KPO4.
Total reaction volume per well was 200 μl, consisting of 100 μl cells plus media and 100 μl reagent composition containing KPO4 and/or NaF. The light output was taken at various times on a Dynex microtiter plate luminometer at a 0.5 second read time. The resulting average rlus from quadruplicate wells and calculated signal stabilities as measured by their half-life values are reported in Table S.

[F-].[Na+] [NaF, sodium fluoride]
Average rlu (1.0 mM NaF, 12500 cells/well, 0 min): 358.61 rlu
Average rlu (1.0 mM NaF, 12500 cells/well, 30 min): 341.31 rlu
Average rlu (1.0 mM NaF, 12500 cells/well, 85 min): 331.08 rlu
Average rlu (1.0 mM NaF, 12500 cells/well, 130 min): 323.54 rlu
Average rlu (1.0 mM NaF, 12500 cells/well, 220 min): 271.89 rlu
Average rlu (1.0 mM NaF, 12500 cells/well, 255 min): 257.06 rlu
Average rlu (1.0 mM NaF, 12500 cells/well, 285 min): 247.61 rlu
Average rlu (1.0 mM NaF, 25000 cells/well, 0 min): 691.68 rlu
Average rlu (1.0 mM NaF, 25000 cells/well, 30 min): 640.53 rlu
Average rlu (1.0 mM NaF, 25000 cells/well, 85 min): 611.45 rlu
Average rlu (1.0 mM NaF, 25000 cells/well, 130 min): 596.87 rlu
Average rlu (1.0 mM NaF, 25000 cells/well, 220 min): 495.89 rlu
Average rlu (1.0 mM NaF, 25000 cells/well, 255 min): 463.32 rlu
Average rlu (1.0 mM NaF, 25000 cells/well, 285 min): 446.32 rlu
Average rlu (1.0 mM NaF, 50000 cells/well, 0 min): 1380.16 rlu
Average rlu (1.0 mM NaF, 50000 cells/well, 30 min): 1268.49 rlu
Average rlu (1.0 mM NaF, 50000 cells/well, 85 min): 1185.73 rlu
Average rlu (1.0 mM NaF, 50000 cells/well, 130 min): 1147.33 rlu
Average rlu (1.0 mM NaF, 50000 cells/well, 220 min): 936.82 rlu
Average rlu (1.0 mM NaF, 50000 cells/well, 255 min): 862.31 rlu
Average rlu (1.0 mM NaF, 50000 cells/well, 285 min): 832.15 rlu
Average rlu (2.0 mM NaF, 12500 cells/well, 0 min): 348.16 rlu
Average rlu (2.0 mM NaF, 12500 cells/well, 30 min): 333.48 rlu
Average rlu (2.0 mM NaF, 12500 cells/well, 85 min): 323.75 rlu
Average rlu (2.0 mM NaF, 12500 cells/well, 130 min): 317.48 rlu
Average rlu (2.0 mM NaF, 12500 cells/well, 220 min): 258.43 rlu
Average rlu (2.0 mM NaF, 12500 cells/well, 255 min): 251.90 rlu
Average rlu (2.0 mM NaF, 12500 cells/well, 285 min): 239.40 rlu
Average rlu (2.0 mM NaF, 25000 cells/well, 0 min): 679.02 rlu
Average rlu (2.0 mM NaF, 25000 cells/well, 30 min): 631.69 rlu
Average rlu (2.0 mM NaF, 25000 cells/well, 85 min): 603.07 rlu
Average rlu (2.0 mM NaF, 25000 cells/well, 130 min): 589.08 rlu
Average rlu (2.0 mM NaF, 25000 cells/well, 220 min): 472.37 rlu
Average rlu (2.0 mM NaF, 25000 cells/well, 255 min): 455.25 rlu
Average rlu (2.0 mM NaF, 25000 cells/well, 285 min): 433.54 rlu
Average rlu (2.0 mM NaF, 50000 cells/well, 0 min): 1340.22 rlu
Average rlu (2.0 mM NaF, 50000 cells/well, 30 min): 1239.83 rlu
Average rlu (2.0 mM NaF, 50000 cells/well, 85 min): 1156.03 rlu
Average rlu (2.0 mM NaF, 50000 cells/well, 130 min): 1111.04 rlu
Average rlu (2.0 mM NaF, 50000 cells/well, 220 min): 873.26 rlu
Average rlu (2.0 mM NaF, 50000 cells/well, 255 min): 829.87 rlu
Average rlu (2.0 mM NaF, 50000 cells/well, 285 min): 781.80 rlu
Average rlu (4.0 mM NaF, 12500 cells/well, 0 min): 367.69 rlu
Average rlu (4.0 mM NaF, 12500 cells/well, 30 min): 346.05 rlu
Average rlu (4.0 mM NaF, 12500 cells/well, 85 min): 335.27 rlu
Average rlu (4.0 mM NaF, 12500 cells/well, 130 min): 331.07 rlu
Average rlu (4.0 mM NaF, 12500 cells/well, 220 min): 275.13 rlu
Average rlu (4.0 mM NaF, 12500 cells/well, 255 min): 259.58 rlu
Average rlu (4.0 mM NaF, 12500 cells/well, 285 min): 251.79 rlu
Average rlu (4.0 mM NaF, 25000 cells/well, 0 min): 691.41 rlu
Average rlu (4.0 mM NaF, 25000 cells/well, 30 min): 634.08 rlu
Average rlu (4.0 mM NaF, 25000 cells/well, 85 min): 604.37 rlu
Average rlu (4.0 mM NaF, 25000 cells/well, 130 min): 587.41 rlu
Average rlu (4.0 mM NaF, 25000 cells/well, 220 min): 476.36 rlu
Average rlu (4.0 mM NaF, 25000 cells/well, 255 min): 453.66 rlu
Average rlu (4.0 mM NaF, 25000 cells/well, 285 min): 436.38 rlu
Average rlu (4.0 mM NaF, 50000 cells/well, 0 min): 1378.13 rlu
Average rlu (4.0 mM NaF, 50000 cells/well, 30 min): 1277.41 rlu
Average rlu (4.0 mM NaF, 50000 cells/well, 85 min): 1195.56 rlu
Average rlu (4.0 mM NaF, 50000 cells/well, 130 min): 1139.99 rlu
Average rlu (4.0 mM NaF, 50000 cells/well, 220 min): 883.49 rlu
Average rlu (4.0 mM NaF, 50000 cells/well, 255 min): 853.43 rlu
Average rlu (4.0 mM NaF, 50000 cells/well, 285 min): 813.31 rlu
Average rlu (10.0 mM NaF, 12500 cells/well, 0 min): 364.79 rlu
Average rlu (10.0 mM NaF, 12500 cells/well, 30 min): 343.44 rlu
Average rlu (10.0 mM NaF, 12500 cells/well, 85 min): 331.48 rlu
Average rlu (10.0 mM NaF, 12500 cells/well, 130 min): 326.32 rlu
Average rlu (10.0 mM NaF, 12500 cells/well, 220 min): 271.64 rlu
Average rlu (10.0 mM NaF, 12500 cells/well, 255 min): 256.88 rlu
Average rlu (10.0 mM NaF, 12500 cells/well, 285 min): 248.30 rlu
Average rlu (10.0 mM NaF, 25000 cells/well, 0 min): 753.29 rlu
Average rlu (10.0 mM NaF, 25000 cells/well, 30 min): 677.94 rlu
Average rlu (10.0 mM NaF, 25000 cells/well, 85 min): 635.67 rlu
Average rlu (10.0 mM NaF, 25000 cells/well, 130 min): 617.77 rlu
Average rlu (10.0 mM NaF, 25000 cells/well, 220 min): 496.08 rlu
Average rlu (10.0 mM NaF, 25000 cells/well, 255 min): 471.66 rlu
Average rlu (10.0 mM NaF, 25000 cells/well, 285 min): 450.76 rlu
Average rlu (10.0 mM NaF, 50000 cells/well, 0 min): 1442.08 rlu
Average rlu (10.0 mM NaF, 50000 cells/well, 30 min): 1324.67 rlu
Average rlu (10.0 mM NaF, 50000 cells/well, 85 min): 1235.80 rlu
Average rlu (10.0 mM NaF, 50000 cells/well, 130 min): 1181.84 rlu
Average rlu (10.0 mM NaF, 50000 cells/well, 220 min): 903.44 rlu
Average rlu (10.0 mM NaF, 50000 cells/well, 255 min): 870.95 rlu
Average rlu (10.0 mM NaF, 50000 cells/well, 285 min): 826.48 rlu
Average rlu (10.0 mM NaF, without KPO4, 12500 cells/well, 0 min): 409.57 rlu
Average rlu (10.0 mM NaF, without KPO4, 12500 cells/well, 30 min): 400.10 rlu
Average rlu (10.0 mM NaF, without KPO4, 12500 cells/well, 85 min): 384.84 rlu
Average rlu (10.0 mM NaF, without KPO4, 12500 cells/well, 130 min): 371.42 rlu
Average rlu (10.0 mM NaF, without KPO4, 12500 cells/well, 220 min): 294.12 rlu
Average rlu (10.0 mM NaF, without KPO4, 12500 cells/well, 255 min): 283.01 rlu
Average rlu (10.0 mM NaF, without KPO4, 12500 cells/well, 285 min): 267.78 rlu
Average rlu (10.0 mM NaF, without KPO4, 25000 cells/well, 0 min): 806.87 rlu
Average rlu (10.0 mM NaF, without KPO4, 25000 cells/well, 30 min): 785.16 rlu
Average rlu (10.0 mM NaF, without KPO4, 25000 cells/well, 85 min): 734.44 rlu
Average rlu (10.0 mM NaF, without KPO4, 25000 cells/well, 130 min): 692.57 rlu
Average rlu (10.0 mM NaF, without KPO4, 25000 cells/well, 220 min): 516.69 rlu
Average rlu (10.0 mM NaF, without KPO4, 25000 cells/well, 255 min): 498.99 rlu
Average rlu (10.0 mM NaF, without KPO4, 25000 cells/well, 285 min): 468.90 rlu
Average rlu (10.0 mM NaF, without KPO4, 50000 cells/well, 0 min): 1514.80 rlu
Average rlu (10.0 mM NaF, without KPO4, 50000 cells/well, 30 min): 1449.30 rlu
effect on the luminescence increase seen with Jurkat cells (NaF added to reagent composition): can inhibit the luminescence increase
